# Measurements reported in US20150218652A1, “METHODS FOR DIAGNOSIS AND TREATMENT OF CANCER” (THE REGENTS OF THE UNVERSITY OF COLORADO, a body corporate, priority 2012, published 2015).
# Where two headings read alike, the source gives them in different places.
# What was measured:
# [1] = test system: Ba/F3 cells expressing NTRK1-MPRIP; test: MTS proliferation assay of Ba/F3 cells expressing NTRK1-MPRIP; format: cell-based; conditions: n=5
# From the text: (§1) The half maximal inhibitory concentration (IC50) values are listed (nM).
# [2] = test system: KM12 cells harboring the TPM3-NTRK1 fusion; test: MTS proliferation assay of KM12 cells; format: cell-based
# Description: KM12 cells harboring the TPM3-NTRK1 fusion were lysed following 5 h treatment with the indicated doses of inhibitors and subject to immunoblot analysis (n=3).
# Proliferation of KM12 cells treated with the indicated drugs and doses were assayed for cell proliferation by MTS assay.
# [3] = molecular target: T1, TRKA (Homo sapiens, UniProt P04629); test: Immunoprecipitation of TRKA-HA from 293T cells and anti-phosphotyrosine immunoblot; format: cell-based; conditions: 293T cells, 1 μM, 5 hours, vs DMSO control
# T1 construct: the inventors expressed full length TRKA in 293T cells; expressed in transfected cells; host or cells: 293T cells, transient transfection of pCDH-MCS1-EF1-puro carrying NTRK1-HA
# [4] = molecular target: T1, TRKA; test: Immunoblot of 293T cell lysates expressing TRKA-HA: TRKA and downstream signaling; format: cell-based; conditions: 293T cells, 1 μM, 5 hours, presence or absence of NGF
# [5] = test system: CUTO-3 cells harboring the NTRK1-MPRIP gene fusion; test: Immunoblot analysis of CUTO-3 cells; format: cell-based
# From the text: Colorado University Thoracic Oncology (CUTO) 3 cells were derived from a pleural effusion from the index patient harboring the NTRK1-MPRIP gene fusion.
# [6] = test system: Ba/F3 cells expressing NTRK1 fusions; test: MTS proliferation assay of Ba/F3 cells expressing NTRK1 fusions; format: cell-based; conditions: n=5, similar to Ba/F3 cells expressing ALK or ROS1 fusion constructs
# From the text: as §1
# [7] = test system: ROS1 gene fusions; conditions: lung cancer patients harboring ROS1 gene fusions; cited from earlier work
# T1 sequence (P04629 33-796): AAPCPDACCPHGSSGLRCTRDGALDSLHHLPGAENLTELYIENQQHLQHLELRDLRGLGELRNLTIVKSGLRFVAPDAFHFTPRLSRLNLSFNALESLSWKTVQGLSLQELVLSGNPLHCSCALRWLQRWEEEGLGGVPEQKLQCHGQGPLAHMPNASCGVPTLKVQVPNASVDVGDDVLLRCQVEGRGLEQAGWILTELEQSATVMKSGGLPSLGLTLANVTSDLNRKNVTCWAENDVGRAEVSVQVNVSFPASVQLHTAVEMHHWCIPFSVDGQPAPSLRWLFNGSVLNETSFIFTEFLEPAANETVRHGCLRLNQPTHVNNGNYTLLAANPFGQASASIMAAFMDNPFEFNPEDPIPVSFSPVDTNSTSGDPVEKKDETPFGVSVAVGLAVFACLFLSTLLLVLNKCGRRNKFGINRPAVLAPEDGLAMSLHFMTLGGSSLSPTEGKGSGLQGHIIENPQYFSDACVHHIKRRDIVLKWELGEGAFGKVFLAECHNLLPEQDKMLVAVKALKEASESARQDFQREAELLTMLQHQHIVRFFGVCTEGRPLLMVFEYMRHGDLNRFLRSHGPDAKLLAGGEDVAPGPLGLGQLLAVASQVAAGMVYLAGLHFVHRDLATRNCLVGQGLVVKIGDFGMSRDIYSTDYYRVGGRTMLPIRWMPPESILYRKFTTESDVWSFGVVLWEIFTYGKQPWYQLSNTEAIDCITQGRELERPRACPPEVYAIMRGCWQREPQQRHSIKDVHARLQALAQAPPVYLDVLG
Compound,inhibition of proliferation [1],inhibition of proliferation of KM12 cells ([2]; MTS assay),Phosphorylation of TRKA (anti-phosphotyrosine 4G10 after HA immunoprecipitation) [3],phosphorylation of AKT [4],phosphorylation of ERK [4],"phosphorylation of TRKA (phosphotyrosine 490, 674, 675) [4]",inhibition of pERK [5],inhibition of pTRKA [5],inhibition of proliferation of KM12 cells [2],inhibition of cell proliferation of Ba/F3 expressing NTRK1 fusions [6],patient response [7]
C[C@]12O[C@H](C[C@]1(O)CO)n1c3ccccc3c3c4c(c5c6ccccc6n2c5c31)CNC4=O [CEP-701],inhibition of proliferation,inhibited,significantly reduced,inhibited phosphorylation,inhibited phosphorylation,inhibited phosphorylation,,,,,
O=C(Nc1cnn2ccc(N3CCC[C@@H]3c3cc(F)ccc3F)nc12)N1CC[C@H](O)C1 [ARRY-470],inhibition of proliferation,,,,,,inhibition,inhibition,inhibited,,
C[C@@H](Oc1cc(-c2cnn(C3CCNCC3)c2)cnc1N)c1c(Cl)ccc(F)c1Cl [crizotinib],,inhibited,,,decreased phosphorylation,decreased phosphorylation,,,,inhibition,respond
